Laboratory results taken from US20230097866A1, “BACTERIAL TOPOISOMERASE INHIBITORS DERIVED FROM ISOMANNIDE” (Ohio State Innovation Foundation, priority 2020, published 2023).
In brackets after ≈: the same amount, converted by molar mass. Like-named read-outs stand apart in the source and are kept apart here.

Legend:
hKCNQ1/hminK = biological target: T1, hKCNQ1/hminK (Homo sapiens, UniProt P51787); assay: KCNQ1/hminK QPatch CiPA assay; assay type: cell-based; conditions: mean, duplicate, read-out: % Inhibition KCNQ1 (peak current)
T1 construct: expressed in transfected cells
Text: (§1) Early drug discovery programs commonly assess hERG inhibition as the only indicator of potential cardiovascular safety concerns. Researchers have recently recommended a more rigorous evaluation of multiple cardiac ion channels to provide a more comprehensive cardiovascular risk assessment (Fermini, B., et al., A New Perspective in the Field of Cardiac Safety Testing through the Comprehensive In Vitro Proarrhythmia Assay Paradigm. J. Biomolec. Screening 2016, 21, 1-11). Given the promising initial results for 6, further evaluation was undertaken (in duplicate) in a Comprehensive in vitro Proarrhythmia Assay (CiPA) eight assay panel run on the QPatch HT (Sophion, Denmark) automated patch clamp system at three concentrations (3, 30, and 100 μM). All data were filtered for seal quality, seal drop, and current amplitude. A stock solution of the test compound at 30 mM concentration was prepared in DMSO.
(§2) The parameters measured were the maximum outward current evoked on stepping to 60 mV from the test pulse. The peak current amplitude was calculated before and after compound addition and the amount of block was assessed by dividing the Test compound current amplitude by the Control current amplitude. Control is the mean hKCNQ1/hminK current amplitude collected 15 seconds at the end of the control; Test Compound is the mean hKCNQ1/hminK current amplitude collected in the presence of test compound at each concentration. The positive control was chromanol 293B.

in vitro [1] = assay type: in vitro ADME; conditions: pH 7.4, 1 μM, read-out: microsomal half-life
Method: The test compound at 1 μM was pre-incubated with pooled liver microsomes in phosphate buffer (pH 7.4) for 5 minutes in a 37° C. shaking water bath. The reaction was initiated by adding NADPH-generating mixture (NADP+, glucose-6-phospate, glucose-6-phosphate dehydrogenase) and incubated for 0, 15, 30, 45, and 60 minutes. The reaction was stopped by transferring aliquots of the incubation mixture to acetonitrile/methanol. Samples were centrifuged, and supernatants analyzed by LCMS. The half-life was calculated from the slope of the initial linear range of the logarithmic curve of compound remaining %) vs. time, assuming first order kinetics. In addition, the intrinsic clearance (Clint) was calculated from the half-life.

[2] = tested on: Streptococcus pyogenes LSI-1235; assay: MIC panel (Laboratory Specialists, Inc.), S. pyogenes; assay type: cell-based; conditions: LSI1235, Cmpd. 6, CLSI broth microdilution
[3] = biological target: T2, hERG Human Potassium Ion Channel (Homo sapiens, UniProt Q12809); assay: hERG QPatch CiPA assay; assay type: cell-based; conditions: mean, duplicate
T2 construct: expressed in transfected cells
Text: as §1
as §2, with “tail” for “outward”, “40 mV and ramping back to −80” for “60”, “hERG” for “hKCNQ1/hminK”, “E-4031.” for “chromanol 293B.”

Nav site 2 = assay: Off-target safety panel, Nav site 2; assay type: binding; conditions: duplicate
Method: (§3) Potential off-target pharmacology for compound 6 was also evaluated by screening in duplicate against a panel (Bowes, J., et al., Reducing Safety-Related Drug Attrition: The Use of in vitro Pharmacological Profiling. Nat. Rev. Drug Disc. 2012, 11, 909-922) of 44 receptors, enzymes, etc. Of the 44 potential targets, only five were inhibited by >50% at a concentration of 100 μM (Table 7).

[4] = biological target: T3, Nav1.5 Late Current Human Ion Channel (Homo sapiens, UniProt Q14524); assay type: cell-based; conditions: in presence of 30 nM ATXII
T3 construct: expressed in transfected cells
Text: as §1
The parameters measured were the maximum inward current (charge) evoked on stepping to −15mV from the test pulse in the presence of 30 nM ATXII. The peak and ramp current (charge) amplitude was calculated before and after compound addition and the amount of current (charge) was assessed by dividing the Test compound current (charge) by the Control current (charge). Control is the mean hNav1.5 late current (charge) collected 15 seconds at the end of the control (30 nM ATXII); Test Compound is the mean hNav1.5 current (charge) collected in the presence of test compound and 30 nM ATXII at each concentration. The positive control was ranolizine.

in vitro [5] = assay type: in vitro ADME; conditions: pH 7.4, 10 μM, equilibrium dialysis
Method: In this assay an equilibrium dialysis technique was used to separate unbound test compound from compound bound to proteins. The plasma was spiked with the test compound at 10 μM with a final DMSO concentration of 1%. The dialysate compartment was loaded with phosphate buffered saline (PBS, pH 7.4) and the sample side was loaded with equal volume of the spiked plasma, After incubation at 37° C. for 4 hours, samples were removed from each plasma and buffer chamber; plasma protein was removed by treatment with acetonitrile. Recovered samples were analyzed using LC-MS.

CYP2C9 = biological target: T4, CYP2C9 (Homo sapiens, UniProt P11712); assay: CYP450 inhibition in human liver microsomes, CYP2C9; assay type: in vitro ADME; conditions: 10 μM
T4 construct: incubated with human liver microsomes (mixed gender, pool of 50 donors, 0.1 mg/mL); from tissue; host or cells: human liver microsomes, pool of 50 donors
Method: CYP450 inhibition assays was conducted using individual enzyme substrates and inhibitors instead of a cocktail to avoid interferences. CYP450 isoforms tested included the following: CYP1A2, CYP2B6, CYP2C8, CYP2C9, CYP2C19, CYP2D6, and CYP3A4. Each test compound was screened at a final concentration of 10 μM. Each test compound was incubated with human liver microsomes (mixed gender, pool of 50 donors, 0.1 mg/mL), CYP450-selective probe substrates, and co-factors (NADPH, MgCl2) in phosphate buffer (pH 7.4) for 10-30 min in a 96-well plate at 37° C. The reactions were stopped by transferring the reaction mixture to acetonitrile/methanol. Samples were mixed and centrifuged, and the supernatants analyzed by LC-MS/MS to quantify percent inhibition relative to vehicle control.

[6] = tested on: Escherichia coli ATCC 25922; assay: MIC panel (Laboratory Specialists, Inc.), E. coli; assay type: cell-based; conditions: ATCC25922, read-out: MIC Escherichia coli ATCC 25922 (n = 2), Cmpd. 6, CLSI broth microdilution
5-HT2B = 5-HT2B (Homo sapiens, UniProt P41595); assay: Off-target safety panel, 5-HT2B; assay type: binding; conditions: duplicate, read-out: % Inhibition at 100 μM conc., 5-HT2B
Method: as §3

T2 sequence (Q12809 whole entry): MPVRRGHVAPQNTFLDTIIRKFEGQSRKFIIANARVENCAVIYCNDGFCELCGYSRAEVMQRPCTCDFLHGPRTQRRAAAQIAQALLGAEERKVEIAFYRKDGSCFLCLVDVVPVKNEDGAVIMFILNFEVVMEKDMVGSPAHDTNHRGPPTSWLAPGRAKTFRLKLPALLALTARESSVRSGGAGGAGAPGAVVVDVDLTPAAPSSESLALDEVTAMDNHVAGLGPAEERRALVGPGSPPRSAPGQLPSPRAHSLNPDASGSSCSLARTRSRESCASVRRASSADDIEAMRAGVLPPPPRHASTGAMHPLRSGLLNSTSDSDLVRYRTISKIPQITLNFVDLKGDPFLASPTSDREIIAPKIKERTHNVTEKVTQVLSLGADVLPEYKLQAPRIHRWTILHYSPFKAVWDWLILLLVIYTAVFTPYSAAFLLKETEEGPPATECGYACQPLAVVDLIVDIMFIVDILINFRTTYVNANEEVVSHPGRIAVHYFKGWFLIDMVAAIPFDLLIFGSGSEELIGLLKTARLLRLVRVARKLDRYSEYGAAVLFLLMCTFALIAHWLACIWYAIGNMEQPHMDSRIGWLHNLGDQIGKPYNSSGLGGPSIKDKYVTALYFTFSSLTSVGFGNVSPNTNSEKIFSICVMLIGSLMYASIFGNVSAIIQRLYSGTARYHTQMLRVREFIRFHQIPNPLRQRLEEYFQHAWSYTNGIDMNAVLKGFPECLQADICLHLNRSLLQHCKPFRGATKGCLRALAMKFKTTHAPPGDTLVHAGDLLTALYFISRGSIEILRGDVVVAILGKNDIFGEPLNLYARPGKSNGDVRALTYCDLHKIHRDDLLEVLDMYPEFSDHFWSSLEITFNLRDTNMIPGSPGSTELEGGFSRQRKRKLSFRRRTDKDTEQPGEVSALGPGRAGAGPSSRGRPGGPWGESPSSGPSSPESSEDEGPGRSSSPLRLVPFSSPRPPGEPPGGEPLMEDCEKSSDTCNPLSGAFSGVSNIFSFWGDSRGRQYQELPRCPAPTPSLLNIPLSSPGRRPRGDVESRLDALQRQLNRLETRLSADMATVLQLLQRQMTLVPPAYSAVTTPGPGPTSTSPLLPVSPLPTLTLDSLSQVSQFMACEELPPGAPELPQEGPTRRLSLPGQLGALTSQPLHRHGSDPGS
T3 sequence (Q14524 whole entry): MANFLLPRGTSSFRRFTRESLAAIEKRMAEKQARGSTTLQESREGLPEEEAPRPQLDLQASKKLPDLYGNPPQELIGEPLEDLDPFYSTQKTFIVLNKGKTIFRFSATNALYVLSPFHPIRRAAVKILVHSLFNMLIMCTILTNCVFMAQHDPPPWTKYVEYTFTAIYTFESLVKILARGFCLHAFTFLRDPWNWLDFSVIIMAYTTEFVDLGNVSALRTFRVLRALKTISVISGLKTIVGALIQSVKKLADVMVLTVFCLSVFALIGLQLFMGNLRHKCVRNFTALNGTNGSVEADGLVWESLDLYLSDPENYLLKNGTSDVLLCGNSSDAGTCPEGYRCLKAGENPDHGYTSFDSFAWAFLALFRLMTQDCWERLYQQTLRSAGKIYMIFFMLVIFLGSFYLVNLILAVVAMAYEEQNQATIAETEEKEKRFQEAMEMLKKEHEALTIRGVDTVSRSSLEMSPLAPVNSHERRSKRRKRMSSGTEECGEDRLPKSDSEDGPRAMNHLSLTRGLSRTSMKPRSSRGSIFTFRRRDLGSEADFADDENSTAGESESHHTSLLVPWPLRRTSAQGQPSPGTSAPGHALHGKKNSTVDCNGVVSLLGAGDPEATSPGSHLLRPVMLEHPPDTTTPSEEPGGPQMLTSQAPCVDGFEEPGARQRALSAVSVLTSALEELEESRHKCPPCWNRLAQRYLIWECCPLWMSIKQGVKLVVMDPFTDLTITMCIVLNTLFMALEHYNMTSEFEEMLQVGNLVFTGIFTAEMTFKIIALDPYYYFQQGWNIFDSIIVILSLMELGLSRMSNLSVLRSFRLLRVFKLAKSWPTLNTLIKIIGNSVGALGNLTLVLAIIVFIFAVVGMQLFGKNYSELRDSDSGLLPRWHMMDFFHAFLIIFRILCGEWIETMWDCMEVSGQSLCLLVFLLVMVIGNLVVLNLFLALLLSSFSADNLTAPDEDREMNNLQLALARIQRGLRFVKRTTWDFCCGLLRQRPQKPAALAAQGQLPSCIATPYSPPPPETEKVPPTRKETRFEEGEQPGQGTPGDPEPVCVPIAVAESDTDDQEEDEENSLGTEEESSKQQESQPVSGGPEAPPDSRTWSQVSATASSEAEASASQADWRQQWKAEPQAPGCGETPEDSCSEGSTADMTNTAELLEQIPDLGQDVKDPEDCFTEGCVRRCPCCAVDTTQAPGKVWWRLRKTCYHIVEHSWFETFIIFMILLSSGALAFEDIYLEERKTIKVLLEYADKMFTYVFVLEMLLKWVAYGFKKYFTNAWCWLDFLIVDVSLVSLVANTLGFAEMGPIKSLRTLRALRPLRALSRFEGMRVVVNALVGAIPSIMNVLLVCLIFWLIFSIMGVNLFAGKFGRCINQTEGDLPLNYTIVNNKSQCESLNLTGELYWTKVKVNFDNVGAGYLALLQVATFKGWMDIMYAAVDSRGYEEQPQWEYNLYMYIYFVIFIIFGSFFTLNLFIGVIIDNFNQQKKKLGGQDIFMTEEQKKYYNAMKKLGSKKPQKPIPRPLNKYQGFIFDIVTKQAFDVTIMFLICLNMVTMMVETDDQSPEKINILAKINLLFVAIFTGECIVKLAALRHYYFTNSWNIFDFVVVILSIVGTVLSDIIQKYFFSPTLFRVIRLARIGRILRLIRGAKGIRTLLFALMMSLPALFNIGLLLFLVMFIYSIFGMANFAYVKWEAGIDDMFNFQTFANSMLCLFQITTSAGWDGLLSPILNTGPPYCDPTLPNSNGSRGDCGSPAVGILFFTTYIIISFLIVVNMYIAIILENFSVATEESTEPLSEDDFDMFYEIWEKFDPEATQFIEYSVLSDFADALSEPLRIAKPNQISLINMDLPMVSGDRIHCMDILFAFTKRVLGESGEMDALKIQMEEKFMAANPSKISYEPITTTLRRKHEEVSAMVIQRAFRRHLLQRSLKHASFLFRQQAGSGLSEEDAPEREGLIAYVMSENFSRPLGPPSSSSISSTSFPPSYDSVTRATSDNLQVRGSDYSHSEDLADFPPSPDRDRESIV
T4 sequence (P11712 whole entry): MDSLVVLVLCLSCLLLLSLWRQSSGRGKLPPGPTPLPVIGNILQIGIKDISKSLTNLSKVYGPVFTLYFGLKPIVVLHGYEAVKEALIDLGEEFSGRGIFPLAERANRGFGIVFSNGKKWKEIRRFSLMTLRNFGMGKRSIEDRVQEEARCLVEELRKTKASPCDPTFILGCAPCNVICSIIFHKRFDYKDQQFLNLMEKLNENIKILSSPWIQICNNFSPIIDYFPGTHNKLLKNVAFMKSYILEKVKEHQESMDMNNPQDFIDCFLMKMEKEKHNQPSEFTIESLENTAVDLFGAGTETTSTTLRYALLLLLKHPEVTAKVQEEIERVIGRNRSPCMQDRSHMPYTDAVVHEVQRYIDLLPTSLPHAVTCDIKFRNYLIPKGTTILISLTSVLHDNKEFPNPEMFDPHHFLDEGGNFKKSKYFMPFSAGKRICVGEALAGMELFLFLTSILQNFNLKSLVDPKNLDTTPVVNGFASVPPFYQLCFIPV
Chain of 5-HT2B (P41595 whole entry, species assumed): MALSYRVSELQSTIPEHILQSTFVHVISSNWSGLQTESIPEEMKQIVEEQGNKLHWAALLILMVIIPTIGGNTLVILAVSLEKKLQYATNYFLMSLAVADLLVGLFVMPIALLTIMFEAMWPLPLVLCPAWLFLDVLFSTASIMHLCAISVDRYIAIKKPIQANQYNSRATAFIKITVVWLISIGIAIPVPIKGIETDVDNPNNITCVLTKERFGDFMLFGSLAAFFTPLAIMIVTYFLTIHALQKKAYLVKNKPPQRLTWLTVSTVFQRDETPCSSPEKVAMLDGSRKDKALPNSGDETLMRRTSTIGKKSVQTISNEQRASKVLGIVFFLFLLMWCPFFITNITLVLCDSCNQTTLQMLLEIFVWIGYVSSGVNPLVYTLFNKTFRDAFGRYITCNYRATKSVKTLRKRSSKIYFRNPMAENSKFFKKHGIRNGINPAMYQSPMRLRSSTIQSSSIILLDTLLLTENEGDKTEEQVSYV

In the case of `COc1ccc2ncc(F)c(CC[C@@]3(O)CO[C@@H]4[C@@H](NCc5cc6c(cn5)OCCO6)CO[C@@H]43)c2n1` [Compound 6, (3R, 3aS,6S,6aR)-6-(((2,3-dihydro-[1,4]dioxino[2,36-c]pyridin-7-yl)methyl)amnino)-3-(2-(3-fluoro-6-methoxy-1,5-naphthyridin-4-yl)ethyl)hexahydrofuro[3,2-b]furan-3-ol], the inhibition at 3 µM (hKCNQ1/hminK; 3 μM) is reported as -2.9%, the inhibition at 30 µM (hKCNQ1/hminK; 30 μM) is reported as 1.5% and the inhibition at 100 µM (hKCNQ1/hminK; 100 μM) is reported as 22.1%. It also gave a half-life (in vitro [1]; human microsomes) of 6 min, a half-life (in vitro [1]; mouse microsomes) of 3 min and an MIC [2] of at most 0.12 µg/mL. The “% Inhibition hERG (tail current)” value ([3]; 3 μM) was −2.4%, the “% Inhibition hERG (tail current)” value ([3]; 30 μM) was 11.3% and the “% Inhibition hERG (tail current)” value ([3]; 100 μM) was 39.0%. The “% Inhibition at 100 μM conc., Nav site 2” value (Nav site 2) was 78%, the “% Inhibition Nav1.5 Late (antagonist - inhibition of ATXII EC50 current)” value (“% Inhibition Nav1.5 Late” for short) ([4]; 3 μM) was 4.3% and the “% Inhibition Nav1.5 Late” value ([4]; 30 μM) was 19.1%. The “% Inhibition Nav1.5 Late” value ([4]; 100 μM) was 50.9%, the fraction unbound (in vitro [5]; human plasma) was 0.138 and the fraction unbound (in vitro [5]; mouse plasma) was 0.047. The CYP2C9 inhibition (CYP2C9) was “Less than 50%”, the MIC [6] was 64 µg/mL (≈ 128 µM) and the inhibition at 100 µM (5-HT2B) was 95%.
